Data as given in patent US4016272A, “Anthelmintic thiodiphenylamine cupric chloride complex salt” (priority 1975, dated 1977).

Legend:
[1] = meat, milk, and wool
Excerpt: The known preparations are efficient only in respect to the imaginal forms of certain helminth infestation diseases. The novel preparation based on thiodiphenylamine cupric chloride complex salt is not toxic and is convinient in use.

[2] = Lethal dose / toxicity in farm animals; format: in vivo; design: lethal dose LD50 / LD100: unit not given here
[3] = tested on: helminth infestation diseases; assay: Helminthicide action in laboratory and field conditions on farm animals; format: in vivo, sheep, cows, and other farm animals
Excerpt: The helminthicide action has been studied in laboratory and field conditions on sheep, cows, and other farm animals of different age and having various helminth infestation diseases. The course of treatment comprises a single oral administration of the preparation in spring and a repeated single administration in autumn. The preparation efficiency is 95 to 100% for the cured animals.

Substance: complex salt of thiodiphenylamine cupric chloride
- productivity of farm animals [1]: enhances productivity of farm animals
- LD100 ([2]; all varieties of farm animals): 1,200
- lethal dose LD50 ([2]; all varieties of farm animals): 1,000
- toxicity ([2]; in vivo): not toxic
- efficiency for curing various helminth infestation diseases in pre-imaginal and imaginal forms ([3]; pre-imaginal and imaginal forms): highly efficient for curing various helminth infestation diseases in pre-imaginal and imaginal forms
- preparation efficiency for the cured animals ([3]; single oral administration in spring and repeated single administration in autumn): 95 to 100%
